Experiments:
[1] = physchem; type: physicochemical
Experimental: (§1) The solubility of valganciclovir hydrochloride (active pharmaceutical ingredient, API) in aqueous solution is pH dependent. […] Valganciclovir hydrochloride is freely soluble under acidic conditions with a maximum solubility of greater than 200 mg/mL in the pH range of 4-6. The stability of valganciclovir hydrochloride is greatest at a pH<3.8.

[2] = type: physicochemical; settings: pH 7
Experimental: as §1

[3] = pKa; type: physicochemical
Experimental: as §1

[4] = pH dependence of stability in aqueous solution; type: physicochemical; settings: monohydrochloride
Experimental: as §1
The following excipients were used to prepare the formulations of Type I. Citric acid anhydrous was combined with sodium citrate to form the buffer system to ensure an acidic pH. […] Sodium benzoate was used as a preservative agent and sodium saccharin was used as an artificial sweetening agent. Maltose, a crystalline disaccharide carbohydrate, was used as a bulking agent (diluent) and to provide desirable mouth feel and sweetness. Strawberry flavor was used as the flavor of the oral solution.

[5] = Hygroscopicity on exposure to relative humidity; type: physicochemical; settings: exposed to 80% relative humidity
Source text: Valganciclovir hydrochloride is moderately hygroscopic, with only small changes in moisture observed when the valganciclovir hydrochloride is exposed to moderate relative humidity. A weight gain of up to approximately 3% occurs when the valganciclovir hydrochloride is exposed to 80% relative humidity (for a total moisture content of up to approximately 8%). It is reversibly hygroscopic and will either absorb or release moisture under ambient humidity conditions, depending on the water content of the valganciclovir hydrochloride and the relative humidity.

Work on CC(C)[C@H](N)C(=O)OCC(CO)OCn1cnc2c(=O)[nH]c(N)nc21.Cl (stereo partly drawn) [valganciclovir hydrochloride, L-Valine, 2-[(2-amino-1,6-dihydro-6-oxo-9H-purin-9-yl)methoxy]-3-hydroxypropyl ester, monohydrochloride] yielded a solubility ([1]; 25 °C, pH 7, water) of 70 mg/mL, a solubility ([1]; aqueous buffer) of over 200 mg/mL and a solubility in water ([1]; pH 7) of 70 mg/mL. For the same molecule, the n-octanol/water partition coefficient [2] was 0.0095, the pKa [3] was 7.6 and the “pH at which stability is greatest” value ([4]; listed as valganciclovir) was at most 3.8. The “pH at which stability is greatest” value [4] was under 3.8, the total moisture content [5] was at most 8% and the weight gain [5] was at most 3%.

Source: patent US11185588B2, “Pharmaceutical dosage forms comprising valganciclovir hydrochloride” (Hoffmann-La Roche Inc., priority 2006, dated 2021)
